{"source": "paper PMC3319116", "about": "(Journal of Medicinal Chemistry, 2012)", "system": "MDCK-mdr1 cells", "experiment": "MDCK-mdr1 permeability assay", "settings": "apical to basal, 3.16 μM, 1 hr, 37°C, pH 7.4; % transported"}
{"smiles": "Cc1c(C(=O)NCC2CCC(CNS(C)(=O)=O)CC2)nn(-c2ccc(Cl)cc2Cl)c1-c1ccc(Cl)cc1", "note": "(centres unmarked) [Compound 7]", "values": [{"measurement": "MDCK-mdr1 permeability A to B", "value": "<1", "unit": "%"}]}
{"smiles": "Cc1c(C(=O)NCC2CCC(CNS(N)(=O)=O)CC2)nn(-c2ccc(Cl)cc2Cl)c1-c1ccc(Cl)cc1", "note": "(centres unmarked) [Compound 8]", "values": [{"measurement": "MDCK-mdr1 permeability A to B", "value": "<1", "unit": "%"}]}
